Molecular target: T1, 3-hydroxy-3-methyl-glutaryl CoA reductase (Rattus norvegicus, UniProt P51639)
T1 construct: from tissue; host or cells: enzyme system separated from an experimental animal
T1 sequence (P51639 1-887): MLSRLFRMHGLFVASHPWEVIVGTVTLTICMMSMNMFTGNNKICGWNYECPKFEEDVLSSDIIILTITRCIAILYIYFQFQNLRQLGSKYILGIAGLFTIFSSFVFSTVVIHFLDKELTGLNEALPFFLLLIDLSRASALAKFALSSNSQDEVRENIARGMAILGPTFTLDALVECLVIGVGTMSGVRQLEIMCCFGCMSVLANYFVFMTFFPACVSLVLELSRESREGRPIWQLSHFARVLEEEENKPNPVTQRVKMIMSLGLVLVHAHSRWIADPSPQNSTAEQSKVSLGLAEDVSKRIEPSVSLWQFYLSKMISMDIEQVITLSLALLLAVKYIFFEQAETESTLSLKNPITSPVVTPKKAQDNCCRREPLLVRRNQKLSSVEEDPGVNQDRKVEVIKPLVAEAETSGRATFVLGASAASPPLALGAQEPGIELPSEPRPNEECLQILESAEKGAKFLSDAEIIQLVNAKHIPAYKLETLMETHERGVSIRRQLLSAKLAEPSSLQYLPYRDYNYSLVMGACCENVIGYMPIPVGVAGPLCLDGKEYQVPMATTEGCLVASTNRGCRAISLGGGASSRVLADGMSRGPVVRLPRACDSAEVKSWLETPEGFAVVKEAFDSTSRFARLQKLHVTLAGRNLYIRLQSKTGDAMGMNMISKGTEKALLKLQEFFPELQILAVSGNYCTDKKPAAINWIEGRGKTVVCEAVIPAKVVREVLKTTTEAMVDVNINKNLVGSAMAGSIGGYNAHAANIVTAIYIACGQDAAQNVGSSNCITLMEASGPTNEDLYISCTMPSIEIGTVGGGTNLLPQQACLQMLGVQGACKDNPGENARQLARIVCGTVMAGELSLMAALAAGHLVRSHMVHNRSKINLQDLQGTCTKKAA
Assay: inhibition of 3-hydroxy-3-methyl-glutaryl CoA reductase (method of Kuroda et al.)
Assay type: biochemical
Conditions: read-out: IC50 (concentration to achieve 50% inhibition of 3-hydroxy-3-methyl-glutaryl CoA reductase)
From the text: The compounds of the present invention have a marked ability to reduce the levels of serum cholesterol. Specifically, the biosynthesis of chlolesterol in an enzyme system or a culture cell system separated from an experimental animal is inhibited through competition with the rate limiting enzyme of 3-hydroxy-3-methylglutaryl-CoA reductase. […] The determination of the inhibitory activity of the compounds was made using the method of Kuroda et al ["Biochimica et Biophysica Acta" Vol. 486, pp. 70-81(1977)] which is a modification of the known method of D. J. Shapiro et al ["Analytical Biochemistry" Vol. 31, pp. 383-390(1969)] with some improvements.
The results are shown in Table 2, in which IC50 is the concentration to achieve 50% inhibition of 3-hydroxy-3-methyl-glutaryl CoA reductase (nM).
`CCC(C)C(=O)OC1CCC(=NO)C2=CC(=O)C(C)C(CCC(O)CC(O)CC(=O)O)C21` (stereo not shown) [Compound A, Sodium 1-(2-methylbutyryl)-3,4-dihydro-6-oxo-4-hydroxyiminoiso-ML-236A carboxylate, reference compound] gave an IC50 of 35.7 nM.
Work on `CCC(C)C(=O)OC1CCC(=NOC)C2=CC(=O)C(C)C(CCC(O)CC(O)CC(=O)O)C21` (stereo not shown) [Compound B, Sodium 1-(2-methylbutyryl)-3,4-dihydro-6-oxo-4-methoxyiminoiso-ML-236A carboxylate, reference compound] yielded an IC50 of 39.5 nM.
Compound `CCC(C)C(=O)OC1CCC(=NOCc2ccccc2)C2=CC(=O)C(C)C(CCC(O)CC(O)CC(=O)OCc3ccccc3)C21` (stereo not shown) [Example 1(c), Benzyl-(2-methylbutyryl)-3,4-dihydro-6-oxo-4-benzyl-oxyiminoiso-ML-236A carboxylate] has an IC50 of 33.1 nM.
Compound `CCC(C)C(=O)OC1CCC(=NOCc2ccc(F)cc2)C2=CC(=O)C(C)C(CCC(O)CC(O)CC(=O)O)C21` (stereo not shown) [Example 3b, Sodium 1-(2-methylbutyryl)-3,4-dihydro-6-oxo-4-(4-fluorobenzyl)oxyiminoiso-ML-236A Carboxylate] has an IC50 of 26.5 nM.
With `CCC(C)C(=O)OC1CCC(=NOCc2ccc([N+](=O)[O-])cc2)C2=CC(=O)C(C)C(CCC(O)CC(O)CC(=O)O)C21` (stereo not shown) [Example 4b, Sodium 1-(2-methylbutyryl)-3,4-dihydro-6-oxo-4-(4-nitrobenzyl)oxyiminoiso-ML-236ACarboxylate] the IC50 was 21 nM.
`CCC(C)C(=O)OC1CCC(=NOCc2ccccc2CO)C2=CC(=O)C(C)C(CCC(O)CC(O)CC(=O)O)C21` (stereo not shown) [Example 6b, Sodium 1-(2-methylbutyryl)-3,4-dihydro-6-oxo-4-(2-hydroxymethylbenzyl)oxyiminoiso-ML-236A Carboxylate] gave an IC50 of 18.4 nM.
In the case of `CCC(C)C(=O)OC1CCC(=NOCc2cccnc2)C2=CC(=O)C(C)C(CCC(O)CC(O)CC(=O)O)C21` (stereo not shown) [Example 10b, Sodium 1-(2-methylbutyryl)-3,4-dihydro-6-oxo-4-(3-pyridylmethyl)oxyiminoiso-ML-236A Carboxylate], the IC50 is reported as 31.4 nM.
`CCC(C)C(=O)OC1CCC(=NOCc2ccco2)C2=CC(=O)C(C)C(CCC(O)CC(O)CC(=O)O)C21` (stereo not shown) [Example 11b, Sodium 1-(2-methylbutyryl)-3,4-dihydro-6-oxo-4-furfuryl-oxyiminoiso-ML-236ACarboxylate] gave an IC50 of 36 nM.
For `CCC(C)C(=O)OC1CCC(=NOCC=C(C)C)C2=CC(=O)C(C)C(CCC(O)CC(O)CC(=O)O)C21` (stereo not shown) [Example 17b, Sodium 1-(2-methylbutyryl)-3,4-dihydro-6-oxo-4-(3-methyl-2-butenyl)oxyiminoiso-ML-236A Carboxylate], the IC50 was 21.3 nM.

Tested on: serum cholesterol
Assay: not given
Conditions: animals; J. Antibiotics 29, 1346 (1976); cited from earlier work
In the case of `CC1C=CC2=CCCC(O)C2C1CCC1CC(O)CC(=O)O1` (stereo not shown) [ML-236A], the “reduction of serum cholesterol levels” value is given as “significantly reduce”.
In the case of `CCC(C)C(=O)OC1CCC=C2C=CC(C)C(CCC3CC(O)CC(=O)O3)C21` (stereo not shown) [ML-236B], the “reduction of serum cholesterol levels” value is given as “significantly reduce”.

Tested on: 3-hydroxy-3-methylglutaryl-coenzyme A reductase
Assay: not given
Conditions: enzymes or cultured cells from experimental animals; competing with HMG-CoA reductase; cited from earlier work
For `CC1C=CC2=CCCC(O)C2C1CCC1CC(O)CC(=O)O1` (stereo not shown) [ML-236A], the “inhibition of the biosynthesis of cholesterol” value is given as “inhibit the biosynthesis of cholesterol”.
For `CCC(C)C(=O)OC1CCC=C2C=CC(C)C(CCC3CC(O)CC(=O)O3)C21` (stereo not shown) [ML-236B], the “inhibition of the biosynthesis of cholesterol” value is given as “inhibit the biosynthesis of cholesterol”.

— patent US5658942A, “Octahydronaphthalene oxime compounds for cholesterol synthesis inhibition” (Sankyo Company, Limited, priority 1987, dated 1997)
